Measurements from US8859580B2 (Boehringer Ingelheim International GmbH, priority 2007, dated 2014).

target: T1, 11β-HSD1 (Homo sapiens, UniProt P28845); test: In vitro inhibition of 11β-HSD1, HTRF detection of cortisol generated from cortisone by human liver microsomes; type: biochemical; details: 11β-HSD IC50 (nM), 1 hour at 37° C., pH 6.0, NADPH 200 μM, cortisone 80 nM, inhibition relative to carbenoxolone signal
T1 construct: detecting cortisol generated from cortisterone by human liver microsomes; from tissue; host or cells: human liver microsomes
In short: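 Inhibition expressed against the carbenoxolone signal and fitted to IC50 curves. Readout: HTRF competition between microsomal cortisol and XL665-labelled cortisol for Eu-cryptate anti-cortisol antibody (typically 2 h), with emission ratio 665/615 calibrated to cortisol concentration.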

T1 sequence (P28845 whole entry): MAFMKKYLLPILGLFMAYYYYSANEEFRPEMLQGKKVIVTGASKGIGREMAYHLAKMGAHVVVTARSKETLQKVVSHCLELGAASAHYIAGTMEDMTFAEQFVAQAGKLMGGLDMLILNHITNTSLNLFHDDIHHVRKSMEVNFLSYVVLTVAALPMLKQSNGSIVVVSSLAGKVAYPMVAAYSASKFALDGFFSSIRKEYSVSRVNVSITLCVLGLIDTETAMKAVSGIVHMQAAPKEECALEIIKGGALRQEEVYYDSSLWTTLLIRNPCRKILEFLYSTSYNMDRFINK

Row | SMILES | IC50
1 | Cn1nc(C(=O)N2CC[C@@]3(C)c4cccc(O)c4C[C@@H]2C3(C)C)c2ccccc21 [Example 194, [(2R,6S)-10-Hydroxy-6,11,11-trimethyl-1,2,5,6-tetrahydro-4H-2,6-methano-benzo[d]azocin-3-yl]-(1-methyl-1H-indazol-3-yl)-methanone] | 642 nM
2 | COc1cccc2[nH]cc(C(=O)N3CC[C@@]4(C)c5cccc(O)c5C[C@@H]3C4(C)C)c12 [Example 195, [(2R,6S)-10-Hydroxy-6,11,11-trimethyl-1,2,5,6-tetrahydro-4H-2,6-methano-benzo[d]azocin-3-yl]-(4-methoxy-1H-indol-3-yl)-methanone] | 2480 nM
3 | CC1(C)[C@H]2Cc3c(O)cccc3[C@]1(C)CCN2C(=O)c1c[nH]c2ccc(Cl)cc12 [Example 196, (5-Chloro-1H-indol-3-yl)-[(2R,6S)-10-hydroxy-6,11,11-trimethyl-1,2,5,6-tetrahydro-4H-2,6-methano-benzo[d]azocin-3-yl]-methanone] | 781 nM
4 | Cc1[nH]c2ccccc2c1C(=O)N1CC[C@@]2(C)c3cccc(O)c3C[C@@H]1C2(C)C [Example 197, [(2R,6S)-10-Hydroxy-6,11,11-trimethyl-1,2,5,6-tetrahydro-4H-2,6-methano-benzo[d]azocin-3-yl]-(2-methyl-1H-indol-3-yl)-methanone] | 3830 nM
5 | CC1(C)[C@H]2Cc3c(O)cccc3[C@]1(C)CCN2C(=O)c1coc2ccccc12 [Example 198, Benzofuran-3-yl-[(2R,6S)-10-hydroxy-6,11,11-trimethyl-1,2,5,6-tetrahydro-4H-2,6-methano-benzo[d]azocin-3-yl]-methanone] | 435 nM
6 | Cn1cc(C(=O)N2CC[C@@]3(C)c4cccc(O)c4C[C@@H]2C3(C)C)c2ccccc21 [Example 199, [(2R,6S)-10-Hydroxy-6,11,11-trimethyl-1,2,5,6-tetrahydro-4H-2,6-methano-benzo[d]azocin-3-yl]-(1-methyl-1H-indol-3-yl)-methanone] | 137 nM
7 | CN(C)S(=O)(=O)c1ccc2c(c1)[C@]1(C)CCN(C(=O)c3ccc4nc[nH]c4c3)[C@H](C2)C1(C)C [Example 201, (2R,6S)-3-(3H-Benzoimidazole-5-carbonyl)-6,11,11-trimethyl-1,2,3,4,5,6-hexahydro-2,6-methano-benzo[d]azocine-8-sulfonic acid dimethylamide] | 53 nM
8 | CNS(=O)(=O)c1ccc2c(c1)[C@]1(C)CCN(C(=O)c3ccc4nc[nH]c4c3)[C@H](C2)C1(C)C [Example 202, (2R,6S)-3-(3H-Benzoimidazole-5-carbonyl)-6,11,11-trimethyl-1,2,3,4,5,6-hexahydro-2,6-methano-benzo[d]azocine-8-sulfonic acid methylamide] | 66 nM
9 | CC1(C)[C@H]2Cc3ccc(S(N)(=O)=O)cc3[C@]1(C)CCN2C(=O)c1ccc2nc[nH]c2c1 [Example 203, (2R,6S)-3-(3H-Benzoimidazole-5-carbonyl)-6,11,11-trimethyl-1,2,3,4,5,6-hexahydro-2,6-methano-benzo[d]azocine-8-sulfonic acid amide] | 125 nM
10 | CC(=O)c1ccc2c(c1)[C@]1(C)CCN(C(=O)c3ccc4nc[nH]c4c3)[C@H](C2)C1(C)C [Example 204, 1-[(2R,6S)-3-(3H-Benzoimidazole-5-carbonyl)-6,11,11-trimethyl-1,2,3,4,5,6-hexahydro-2,6-methano-benzo[d]azocin-8-yl]-ethanone] | 27 nM
11 | CC(=O)c1ccc2c(c1)C[C@H]1N(C(=O)c3ccc4nc[nH]c4c3)CC[C@]2(C)C1(C)C [Example 205, 1-[(2R,6S)-3-(3H-Benzoimidazole-5-carbonyl)-6,11,11-trimethyl-1,2,3,4,5,6-hexahydro-2,6-methano-benzo[d]azocin-9-ayl]-ethanone] | 38 nM
12 | CC1(C)[C@H]2Cc3cc(C#N)ccc3[C@]1(C)CCN2C(=O)c1ccc2nc[nH]c2c1 [Example 206, (2R,6S)-3-(3H-Benzoimidazole-5-carbonyl)-6,11,11-trimethyl-1,2,3,4,5,6-hexahydro-2,6-methano-benzo[d]azocine-9-carbonitrile] | 47 nM
13 | CC1(C)[C@H]2Cc3c(O)cccc3[C@]1(C)CCN2C(=O)c1ccc(CN2CCOCC2=O)cc1 [Example 207, 4-[(2R,6S)-4-(10-Hydroxy-6,11,11-trimethyl 1,2,5,6-tetrahydro-4H-2,6-methano-benzo[d]azocine-3-carbonyl)-benzyl]-morpholin-3-one] | 224 nM
14 | CN(C(=O)c1ccc(C(=O)N2CC[C@@]3(C)c4cccc(O)c4C[C@@H]2C3(C)C)cc1)c1ccccc1 [Example 208, 4-[(2R,6S)-10-Hydroxy-6,11,11-trimethyl-1,2,5,6-tetrahydro-4H-2,6-methano-benzo[d]azocine-3-carbonyl]-N-methyl-N-phenyl-benzamide] | 238 nM
15 | CC(O)c1ccc2c(c1)C[C@H]1N(C(=O)c3ccc4nc[nH]c4c3)CC[C@]2(C)C1(C)C (stereo partly drawn) [Example 209, (3H-Benzoimidazol-5-yl)-[(2R,6S)-9-(1-hydroxy-ethyl)-6,11,11-trimethyl-1,2,5,6-tetrahydro-4H-2,6-methano-benzo[d]azocin-3-yl]-methanone] | 40 nM
16 | Cc1cc2nc[nH]c2cc1C(=O)N1CC[C@@]2(C)c3cccc(O)c3C[C@@H]1C2(C)C [Example 210, [(2R,6S)-10-Hydroxy-6,11,11-trimethyl-1,2,5,6-tetrahydro-4H-2,6-methano-benzo[d]azocin-3-yl]-(6-methyl-3H-benzoimidazol-5-yl)-methanone] | 68 nM
17 | CC(O)c1ccc2c(c1)[C@]1(C)CCN(C(=O)c3ccc4nc[nH]c4c3)[C@H](C2)C1(C)C (stereo partly drawn) [Example 211, (3H-Benzoimidazol-5-yl)-[(2R,6S)-8-(1-hydroxy-ethyl)-6,11,11-trimethyl-1,2,5,6-tetrahydro-4H-2,6-methano-benzo[d]azocin-3-yl]-methanone] | 31 nM
18 | COC(=O)C12CCN(C(=O)c3ccc4nc[nH]c4c3)C(Cc3ccc(O)cc31)C2 (stereo not shown) [Example 212, 3-(3H-Benzoimidazole-5-carbonyl)-8-hydroxy-2,3,4,5-tetrahydro-1H-2,6-methano-benzo[d]azocine-6-carboxylic acid methyl ester] | 1940 nM
19 | O=C(c1ccc2nc[nH]c2c1)N1CCC2(C(=O)O)CC1Cc1ccc(O)cc12 (stereo not shown) [Example 213, 3-(3H-Benzoimidazole-5-carbonyl)-8-hydroxy-2,3,4,5-tetrahydro-1H-2,6-methano-benzo[d]azocine-6-carboxylic acid] | 2970 nM
20 | NC(=O)C12CCN(C(=O)c3ccc4nc[nH]c4c3)C(Cc3ccc(O)cc31)C2 (stereo not shown) [Example 214, 3-(3H-Benzoimidazole-5-carbonyl)-8-hydroxy-2,3,4,5-tetrahydro-1H-2,6-methano-benzo[d]azocine-6-carboxylic acid amide] | 5710 nM
21 | Cc1cc(C(=O)N2CC[C@@]3(C)c4cccc(O)c4C[C@@H]2C3(C)C)n(C)n1 [Example 215, (2,5-Dimethyl-2H-pyrazol-3-yl)-[(2R,6S)-10-hydroxy-6,11,11-trimethyl-1,2,5,6-tetrahydro-4H-2,6-methano-benzo[d]azocin-3-yl]-methanone] | 1730 nM
22 | CC1(C)[C@H]2Cc3c(O)cccc3[C@]1(C)CCN2C(=O)c1ccnn1-c1ccccc1 [Example 216, [(2R,6S)-10-Hydroxy-6,11,11-trimethyl-1,2,5,6-tetrahydro-4H-2,6-methano-benzo[d]azocin-3-yl]-(2-phenyl-2H-pyrazol-3-yl)-methanone] | 1720 nM
